# Experimental data taken from publication PMC4926213, “Synthetic small molecule GLP-1 secretagogues prepared by means of a three-component indole annulation strategy” (Scientific Reports, 2016).
# Assays:
# Assay type in all cases: cell-based
# TRPA1 [1] = target: T1, TRPA1 (Rattus norvegicus, UniProt Q6RI86, C622S); assay: fura-2 Ca2+ assay in HEK-293 cells transfected with C622S rat TRPA1
# T1 construct: mutant rat C622S TRPA1
# TRPA1 [2] = target: T2, TRPA1 (Mus musculus, UniProt Q8BLA8); assay: fura-2 Ca2+ assay and whole-cell patch clamp in STC-1 cells; blocked by A967079 and HC030031
# T2 construct: endogenous channel in mouse STC-1 cells
# TRPA1 [3] = target: T3, TRPA1 (Rattus norvegicus, UniProt Q6RI86); assay: fura-2 Ca2+ assay in HEK-293 cells transfected with rat TRPA1 versus empty vector; loss of response in C622S
# T3 construct: wild-type rat TRPA1 (GenBank AY496961.1), 5' fused to YFP
# T3 sequence (Q6RI86 whole entry, the tested form may be a part): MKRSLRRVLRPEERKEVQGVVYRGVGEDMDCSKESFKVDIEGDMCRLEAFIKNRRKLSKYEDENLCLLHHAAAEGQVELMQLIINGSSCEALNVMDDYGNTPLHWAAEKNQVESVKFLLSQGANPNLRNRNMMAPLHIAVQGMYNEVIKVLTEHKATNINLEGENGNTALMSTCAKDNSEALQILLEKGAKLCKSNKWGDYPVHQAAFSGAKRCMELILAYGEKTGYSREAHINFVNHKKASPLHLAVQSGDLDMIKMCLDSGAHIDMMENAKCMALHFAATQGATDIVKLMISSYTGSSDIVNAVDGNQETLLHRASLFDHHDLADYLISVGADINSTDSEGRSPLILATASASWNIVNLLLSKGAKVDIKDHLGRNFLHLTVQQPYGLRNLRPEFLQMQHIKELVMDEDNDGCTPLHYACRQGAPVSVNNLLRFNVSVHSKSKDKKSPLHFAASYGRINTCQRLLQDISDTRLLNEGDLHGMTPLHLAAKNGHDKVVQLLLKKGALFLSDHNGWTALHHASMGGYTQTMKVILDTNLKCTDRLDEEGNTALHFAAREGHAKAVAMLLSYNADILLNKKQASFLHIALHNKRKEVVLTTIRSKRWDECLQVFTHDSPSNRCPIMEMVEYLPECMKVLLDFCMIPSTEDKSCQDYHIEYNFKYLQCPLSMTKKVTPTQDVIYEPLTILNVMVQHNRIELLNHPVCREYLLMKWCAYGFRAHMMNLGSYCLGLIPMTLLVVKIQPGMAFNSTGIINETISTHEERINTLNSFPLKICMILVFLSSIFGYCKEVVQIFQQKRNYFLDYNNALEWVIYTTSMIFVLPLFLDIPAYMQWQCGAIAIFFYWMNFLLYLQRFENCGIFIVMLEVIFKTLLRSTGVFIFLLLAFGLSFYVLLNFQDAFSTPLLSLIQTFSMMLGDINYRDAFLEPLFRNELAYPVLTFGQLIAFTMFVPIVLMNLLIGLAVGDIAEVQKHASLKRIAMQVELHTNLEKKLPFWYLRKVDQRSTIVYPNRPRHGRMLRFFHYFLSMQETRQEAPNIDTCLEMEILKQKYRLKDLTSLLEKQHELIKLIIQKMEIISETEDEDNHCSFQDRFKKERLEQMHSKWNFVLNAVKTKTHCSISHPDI
# T2 sequence (Q8BLA8 whole entry): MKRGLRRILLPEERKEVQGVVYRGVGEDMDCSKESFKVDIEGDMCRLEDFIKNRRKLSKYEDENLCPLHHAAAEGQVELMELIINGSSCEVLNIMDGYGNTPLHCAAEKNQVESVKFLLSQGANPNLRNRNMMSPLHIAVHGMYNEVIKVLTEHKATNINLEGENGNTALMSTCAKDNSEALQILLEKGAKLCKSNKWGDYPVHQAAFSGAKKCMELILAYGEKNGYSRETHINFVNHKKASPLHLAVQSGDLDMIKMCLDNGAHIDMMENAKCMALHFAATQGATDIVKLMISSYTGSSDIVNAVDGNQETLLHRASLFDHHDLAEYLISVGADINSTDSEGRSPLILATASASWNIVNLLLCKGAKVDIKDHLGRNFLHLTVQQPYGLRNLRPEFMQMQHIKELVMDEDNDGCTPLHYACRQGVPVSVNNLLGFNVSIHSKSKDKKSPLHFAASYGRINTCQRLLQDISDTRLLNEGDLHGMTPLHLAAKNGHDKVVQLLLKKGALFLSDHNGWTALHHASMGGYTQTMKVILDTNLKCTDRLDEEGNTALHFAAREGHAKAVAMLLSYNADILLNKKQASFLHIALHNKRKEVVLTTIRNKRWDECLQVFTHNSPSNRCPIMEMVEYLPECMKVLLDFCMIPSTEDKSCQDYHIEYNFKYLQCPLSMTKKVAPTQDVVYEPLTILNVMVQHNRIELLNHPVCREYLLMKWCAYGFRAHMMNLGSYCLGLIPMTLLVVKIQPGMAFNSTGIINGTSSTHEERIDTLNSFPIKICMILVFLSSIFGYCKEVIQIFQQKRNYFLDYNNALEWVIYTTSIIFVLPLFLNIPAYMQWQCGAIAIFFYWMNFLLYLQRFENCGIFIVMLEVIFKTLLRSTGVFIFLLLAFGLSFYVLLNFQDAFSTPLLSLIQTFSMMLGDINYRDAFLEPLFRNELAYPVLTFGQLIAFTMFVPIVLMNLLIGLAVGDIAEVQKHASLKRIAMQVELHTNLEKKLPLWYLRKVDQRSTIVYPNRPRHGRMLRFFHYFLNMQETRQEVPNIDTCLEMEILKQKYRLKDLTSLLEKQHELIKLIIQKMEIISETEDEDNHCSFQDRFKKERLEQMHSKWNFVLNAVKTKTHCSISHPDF
# T1 sequence (Q6RI86 whole entry C622S): as the sequence (Q6RI86 whole entry, the tested form may be a part) above, with C622S counted along it
EC50 (TRPA1 [2]) [nM],Structure (SMILES),fura-2 Ca2+ assay in HEK-293 cells transfected with C622S rat TRPA1 (TRPA1 [1]),fura-2 Ca2+ assay in HEK-293 cells transfected with rat TRPA1 versus empty vecto (TRPA1 [3])
~200,CC1(C)c2c([nH]c3ccc(Cl)cc23)C2C=CC1C2 (racemic) [JWU-A021],mutant C622S rat TRPA1 cDNA responded to JWU-A021 in a manner nearly identical to that of cells transfected with WT,–
–,"C=CCN=C=S [AITC, allyl isothiocyanate]",–,the electrophile AITC must covalently modify C622 in order to fully activate the channel
